The record followed here is ChEMBL document CHEMBL5365511, “Novel Compounds as TEAD Inhibitors for Treating Cancer” (ACS Med Chem Lett, 2023).

Experiment [1] has as its target Transcriptional enhancer factor TEF-4 (Homo sapiens, UniProt Q15562). Put plainly: Displacement of biotinylated lipid pocket probes from His-tagged TEAD2 (unknown origin) preincubated for 4 hrs followed by lipid pocket probe addition and measured after 60 mins by TR-FRET assay. For orientation: TR-FRET usually uses a lanthanide donor and a delayed reading to cut background.

The target in experiment [2] is Transcriptional enhancer factor TEF-3 (Homo sapiens, UniProt Q15561). The experiment in a line: Displacement of biotinylated lipid pocket probes from His-tagged TEAD4 (unknown origin) preincubated for 4 hrs followed by lipid pocket probe addition and measured after 60 mins by TR-FRET assay.
Chain of Transcriptional enhancer factor TEF-3 (Q15561 whole entry): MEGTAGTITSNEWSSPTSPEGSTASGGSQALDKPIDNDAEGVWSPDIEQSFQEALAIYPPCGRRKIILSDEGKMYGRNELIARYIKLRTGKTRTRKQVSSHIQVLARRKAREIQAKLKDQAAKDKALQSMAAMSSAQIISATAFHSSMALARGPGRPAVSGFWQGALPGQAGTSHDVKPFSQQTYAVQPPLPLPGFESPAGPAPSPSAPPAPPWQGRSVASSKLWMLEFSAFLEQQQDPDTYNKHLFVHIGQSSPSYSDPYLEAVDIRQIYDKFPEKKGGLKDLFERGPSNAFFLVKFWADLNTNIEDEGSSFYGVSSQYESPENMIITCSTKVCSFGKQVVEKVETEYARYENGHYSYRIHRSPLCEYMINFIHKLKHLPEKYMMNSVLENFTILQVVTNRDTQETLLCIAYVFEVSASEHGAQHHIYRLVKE
For experiment [3], the target named is Transcriptional enhancer factor TEF-1 (Homo sapiens, UniProt P28347). Put plainly: Displacement of biotinylated lipid pocket probes from His-tagged TEAD1 (unknown origin) preincubated for 4 hrs followed by lipid pocket probe addition and measured after 60 mins by TR-FRET assay.
Chain of Transcriptional enhancer factor TEF-1 (P28347 whole entry): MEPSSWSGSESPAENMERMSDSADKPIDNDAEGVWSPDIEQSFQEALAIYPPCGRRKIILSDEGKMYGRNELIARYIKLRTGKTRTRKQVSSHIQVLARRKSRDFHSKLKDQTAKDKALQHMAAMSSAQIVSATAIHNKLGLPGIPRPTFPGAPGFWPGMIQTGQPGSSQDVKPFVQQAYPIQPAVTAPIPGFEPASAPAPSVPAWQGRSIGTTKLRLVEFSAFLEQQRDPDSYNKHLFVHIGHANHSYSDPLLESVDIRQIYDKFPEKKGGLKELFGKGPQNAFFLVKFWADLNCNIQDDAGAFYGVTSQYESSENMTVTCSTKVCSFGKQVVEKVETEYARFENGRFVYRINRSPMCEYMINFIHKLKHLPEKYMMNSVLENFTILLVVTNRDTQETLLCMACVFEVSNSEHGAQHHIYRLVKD
For experiment [4], the target named is Transcriptional enhancer factor TEF-5 (Homo sapiens, UniProt Q99594). The experiment in a line: Displacement of biotinylated lipid pocket probes from His-tagged TEAD3 (unknown origin) preincubated for 4 hrs followed by lipid pocket probe addition and measured after 60 mins by TR-FRET assay.
Chain of Transcriptional enhancer factor TEF-5 (Q99594 whole entry): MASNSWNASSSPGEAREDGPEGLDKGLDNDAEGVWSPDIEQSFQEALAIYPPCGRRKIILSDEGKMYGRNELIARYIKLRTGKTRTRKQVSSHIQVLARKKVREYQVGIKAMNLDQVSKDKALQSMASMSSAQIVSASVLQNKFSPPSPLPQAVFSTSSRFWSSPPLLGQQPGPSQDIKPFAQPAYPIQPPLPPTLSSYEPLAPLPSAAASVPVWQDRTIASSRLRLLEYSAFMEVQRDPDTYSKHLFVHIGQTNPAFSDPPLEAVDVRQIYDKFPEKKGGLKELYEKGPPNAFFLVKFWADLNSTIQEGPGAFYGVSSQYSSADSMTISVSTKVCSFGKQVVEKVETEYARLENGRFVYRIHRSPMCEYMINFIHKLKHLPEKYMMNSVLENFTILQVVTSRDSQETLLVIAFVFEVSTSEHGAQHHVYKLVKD

Chain of Transcriptional enhancer factor TEF-4 (Q15562 whole entry): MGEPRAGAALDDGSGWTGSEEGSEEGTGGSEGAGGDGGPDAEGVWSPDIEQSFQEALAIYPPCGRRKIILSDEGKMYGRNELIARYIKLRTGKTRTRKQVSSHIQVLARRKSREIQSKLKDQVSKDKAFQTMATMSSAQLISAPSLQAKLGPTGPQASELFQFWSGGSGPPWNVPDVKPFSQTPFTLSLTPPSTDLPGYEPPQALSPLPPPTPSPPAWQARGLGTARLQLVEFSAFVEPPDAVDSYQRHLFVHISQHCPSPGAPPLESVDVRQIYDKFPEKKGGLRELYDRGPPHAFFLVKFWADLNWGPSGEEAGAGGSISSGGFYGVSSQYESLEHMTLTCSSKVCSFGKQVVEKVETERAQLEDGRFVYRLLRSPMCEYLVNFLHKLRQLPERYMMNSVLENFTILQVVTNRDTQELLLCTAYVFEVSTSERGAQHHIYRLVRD

As a reminder, the IC50 is the concentration that inhibits the measured activity by half. As for `Cn1cnc2c(-c3ccc(OC(F)(F)F)cc3)nc(C3CN(C(=O)C4=CCC4)C3)nc21`, the results for the IC50 in experiment [1] and in experiment [2] were 4 nM and 2 nM, respectively.
On to `C=CC(=O)N(C)Cc1cc(-c2ccc(OC(F)(F)F)cc2)c2c(c1CO)CCO2`, for which the IC50 in experiment [1] turned out to be 6 nM; in experiment [2], 3 nM; in experiment [3], 4 nM; in experiment [4], 7 nM.
In the case of `C=CC(=O)NCc1cc(-c2ccc(OC(F)(F)F)cc2)c2ncn(C)c2c1C#CCO`, the IC50 worked out at 3 nM in experiment [2] and 6 nM in experiment [3].
For `C=CC(=O)N1CC(c2nc(-c3ccc(OC(F)(F)F)cc3)c3ncsc3n2)C1`, the concentration for half-maximal inhibition (IC50) in experiment [1] amounted to 4 nM; in experiment [2] it was 2 nM; in experiment [3], 3 nM; in experiment [4] it was 3 nM.
